The numbers were not newly measured in patent US20170224756A1, “Antioxidants Against Oxidative Stress During a Stressor Event” (MERIAL INC., priority 2016, published 2017), which cites them from elsewhere.

Data set [1] has as its system gastric lesions. The settings on record: indomethacin in rats.
The test system of data set [2] is endothelial dysfunction. The settings on record: locally administered; human forearms after typhoid vaccination.
Data set [3] concerns oxidative stress. As to conditions: heat-stressed quail.

For the compound `[Se]` [Se/DMSO, selenium], in data set [1], the “enzymatic antioxidants superoxide dismutase, catalase and glutathione peroxidase” value is “increased”; the gastric lesions entry was “significantly reduced”. With `O=C1O[C@H]([C@@H](O)CO)C(O)=C1O` [ascorbic acid], in data set [2], the “endothelial dysfunction, reduced vascular nitric oxide bioavailability and increased oxidative stress” value is recorded as “partially reversible”. In the case of epigallocatechin-3-gallate [EGCG], the “heat stress induced oxidative stress” value in data set [3] was “alleviates”.
